Reference: patent publication US11938121B2, “Treatment of infections and biofilm formation using a cellulose synthase inhibitor” (Purdue Research Foundation, priority 2020, dated 2024)
Where two headings read alike, the source gives them in different places.

Tests used:
[1] = target: T1, GFP-CESA6c^P595S: GFP-tagged central cytoplasmic domain of AtCESA6 (cellulose synthase, CESA6) carrying missense mutation P595S, with a His-SUMO tag (Arabidopsis thaliana, UniProt Q94JQ6, P595S); assay: Microscale thermophoresis (MST) binding to purified GFP-tagged CESA6c^P595S (missense mutant)
T1 construct: We purified AtCESA6 central cytoplasmic domain carrying missense mutation P595S (CESA6c^P595S); His-SUMO; made in house; host or cells: E. coli
Text: FIGS. 3A-3Q. […] FIG. 3A to FIG. 3G. […] FIG. 3A. Representative 5-day-old dark-grown Arabidopsis Col-0 seedlings grown on growth medium supplemented with different concentrations of ES20 or ES20-1. Scale bar: 1 cm. FIG. 3B. Quantification of hypocotyl length of 5-day-old dark-grown Arabidopsis Col-0 seedlings described in FIG. 3A. Data represent mean±SD (n=12 seedlings). FIG. 3C. Quantification of crystalline cellulose content in the hypocotyl cell walls of 7-day-old dark-grown Col-0 seedlings grown on growth medium supplemented with DMSO (0.1%), 1 μM ES20, or 1 μM ES20-1. Data represent mean±SD (n=3 biological replicates). FIG. 3D and FIG. 3E. […] FIG. 3D. Representative image of 6-day-old rice seedlings grown in sterile water supplemented with DMSO (0.1%), 20 μM ES20, or 20 μM ES20-1. Scale bar: 1 cm. FIG. 3E. Quantification of root length of rice seedlings as described in FIG. 3D. Data represent mean±SD (n=10 seedlings). FIG. 3F and FIG. 3G. […] FIG. 3F. […] Quantification of root length of maize seedlings as described in FIG. 3F. […] Quantitative analysis of the band intensity of YFP-AtCESA6 and SEC12 in ES20-1-treated samples divided by that of DMSO-treated samples in the DARTS assay described in FIG. 3H. […] Statistically significant differences in FIG. 3B were determined using one-way ANOVA followed by Tukey's multiple comparisons test. […]

[2] = target: T2, GFP-CESA6c: GFP-tagged central cytosolic domain of AtCESA6 (cellulose synthase, CESA6) with a His-SUMO tag (Arabidopsis thaliana, UniProt Q94JQ6); assay: Microscale thermophoresis (MST) binding to purified GFP-tagged CESA6c (wild-type); details: read-out: Kd, thermophoresis binding curve, GFP-CESA6c
T2 construct: His-SUMO; made in house; host or cells: E. coli
T2 sequence (Q94JQ6 322-868 limits assumed): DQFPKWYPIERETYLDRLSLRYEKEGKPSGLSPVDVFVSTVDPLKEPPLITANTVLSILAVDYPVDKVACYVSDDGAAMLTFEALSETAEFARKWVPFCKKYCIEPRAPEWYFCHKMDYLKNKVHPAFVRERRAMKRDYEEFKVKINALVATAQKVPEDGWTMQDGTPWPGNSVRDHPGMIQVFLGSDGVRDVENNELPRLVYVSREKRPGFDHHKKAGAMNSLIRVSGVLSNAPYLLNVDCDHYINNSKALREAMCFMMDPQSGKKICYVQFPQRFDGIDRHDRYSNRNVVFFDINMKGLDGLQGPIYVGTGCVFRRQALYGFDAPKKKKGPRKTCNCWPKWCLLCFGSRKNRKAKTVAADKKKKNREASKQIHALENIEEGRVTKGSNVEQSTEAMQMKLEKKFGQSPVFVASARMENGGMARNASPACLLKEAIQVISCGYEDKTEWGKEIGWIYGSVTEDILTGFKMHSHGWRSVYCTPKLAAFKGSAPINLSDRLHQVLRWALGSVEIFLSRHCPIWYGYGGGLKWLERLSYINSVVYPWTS
Text: FIGS. 3A-3Q. […] FIG. 3A to FIG. 3G. […] FIG. 3A. Representative 5-day-old dark-grown Arabidopsis Col-0 seedlings grown on growth medium supplemented with different concentrations of ES20 or ES20-1. Scale bar: 1 cm. FIG. 3B. Quantification of hypocotyl length of 5-day-old dark-grown Arabidopsis Col-0 seedlings described in FIG. 3A. Data represent mean±SD (n=12 seedlings). FIG. 3C. Quantification of crystalline cellulose content in the hypocotyl cell walls of 7-day-old dark-grown Col-0 seedlings grown on growth medium supplemented with DMSO (0.1%), 1 μM ES20, or 1 μM ES20-1. Data represent mean±SD (n=3 biological replicates). FIG. 3D and FIG. 3E. […] FIG. 3D. Representative image of 6-day-old rice seedlings grown in sterile water supplemented with DMSO (0.1%), 20 μM ES20, or 20 μM ES20-1. Scale bar: 1 cm. FIG. 3E. Quantification of root length of rice seedlings as described in FIG. 3D. Data represent mean±SD (n=10 seedlings). FIG. 3F and FIG. 3G. […] FIG. 3F. Representative image of 6-day-old maize seedlings grown in sterile water supplemented with DMSO (0.1%), 20 μM ES20, or 20 μM ES20-1. Scale bar: 1 cm. FIG. 3G. Quantification of root length of maize seedlings as described in FIG. 3F. Data represent mean±SD (n=12 seedlings). […] FIG. 3H. Representative immunoblot from a DARTS assay of ES20-1 and YFP-AtCESA6. FIG. 3I. Quantitative analysis of the band intensity of YFP-AtCESA6 and SEC12 in ES20-1-treated samples divided by that of DMSO-treated samples in the DARTS assay described in FIG. 3H. Data represent mean±SD (n=6 biological replicates). FIGS. 3J-3N. […] FIG. 3J. Coomassie blue staining of purified GFP-tagged CESA6c with a His-SUMO tag (lane 2). FIGS. 3K, 3L, 3M, 3N. […] FIG. 3O. Coomassie blue staining of purified GFP-tagged CESA6c^P595S with a His-SUMO tag (lane 2). FIG. 3P and FIG. 3Q. […] Statistically significant differences in FIG. 3B were determined using one-way ANOVA followed by Tukey's multiple comparisons test. Lower-case letters represent ANOVA results for plants grown on medium with 0.1% DMSO, different concentrations of ES20 or ES20-1. […]

[3] = target: T3, GFP-CESA6c (central cytosolic domain of AtCESA6) (Arabidopsis thaliana, UniProt Q94JQ6); assay: MST assay with GFP-CESA6c; assay type: binding; details: for interaction with CESA6c: 100 nM GFP-CESA6c
T3 construct: made in house; host or cells: E. coli
Text: To obtain the central cytosolic domain of AtCESA6 for the MST assay, we inserted the GFP coding sequence into the SacI and PstI restriction enzyme sites of the pRSF-Duet-1 vector (Huang et al., 2020). The GFP coding sequence was amplified from the pUBN-GFP-DEST vector. The sequence encoding the central cytosolic domain of CESA6 (CESA6c) was amplified from Col-0 cDNA and fused with GFP at the C-terminus. CESA6c construct was used as a template for creating CESA6c^P595S construct by site-directed mutagenesis. Protein purification was performed as previously described (Huang et al., 2020).
MST assays were carried out using a Monolith NT.115 (NanoTemper) machine at the Chemical Genomics Facility at Purdue University. […] The ES20-1 was dissolved in DMSO, and the final concentration of DMSO was 5% (vol/vol). MST standard capillaries were used to load the samples into the MST instrument. Triplicate reactions were performed for each test. The MST data were processed using MO. Affinity Analysis Version 2.3 software.

[4] = test system: AtCESA6 (cesa6 alleles es20r1-es20r15); assay: Root growth of EMS-induced cesa6 mutants es20r1-es20r15 on ES20 analogs; assay type: in vivo, Arabidopsis thaliana; details: compared with wild-type/control plants
Text: A subset of active ES20 analogs likely target the catalytic domain of AtCESA6. […] Since ES20 and the nine active ES20 analogs share highly similar structures, we reasoned whether these active analogs target AtCESA6 as well. We therefore examined the growth of es20r1-es20r15 plants in the presence of nine active ES20 analogs compared to wild-type plants.
(§1) To test the inhibitory effects of different chemicals on plant growth, wild-type Arabidopsis Col-0 plants were used. The seeds of plants used for growth assays or live cell imaging were sequentially sterilized with 50% bleach and 75% ethanol. […] To quantify the inhibitory effects of different ES20 active analogs on the root growth of Arabidopsis wildtype, EMS mutants, and transgenic plants expressing mutated AtCESA6 in prc1-1 background, sterilized Col-0, mutants, and transgenic plants seeds were sown on gridded Petri plates containing ½-strength MS medium supplemented with different concentrations of ES20 analogs. […] The plates were scanned using an Epson Perfection V550 scanner after 7 days of growth, and the root lengths of plants were quantified using ImageJ software. […] The Petri dishes were scanned, and hypocotyl length was measured using ImageJ. Transgenic plants expressing fluorescence-tagged PIN2, PIP2a, HDEL, VHA-a1, and GOT1p were as reported previously (Xu and Scheres, Plant Cell, 2005, 17, 525-536).

[5] = test system: AtCESA6 carrying missense mutations in prc1-1; assay: Root growth of transgenic plants expressing mutated AtCESA6 in prc1-1; assay type: in vivo, Arabidopsis thaliana; details: D562N, D564N, D785N, Q823E, R826A, W827A in prc1-1
Text: We then examined whether transgenic plants expressing AtCESA6 with predicted missense mutations at the catalytic site in prc1-1 background would have altered sensitivity to active ES20 analogs. […] However, the responses of two transgenic lines expressing AtCESA6 carrying missense mutations outside of the catalytic site (L365F and D395N) to nine active ES20 analogs were similar to those of wild-type plants (FIG. 2B).
as §1, with “Transgenic plants expressing fluorescence-tagged PIN2, PIP2a, HDEL, VHA-a1, and GOT1p were as reported previously (Xu and Scheres, Plant Cell, 2005, 17, 525-536).” left out

## COc1ccc(C(=O)NC(=S)NNC(=O)c2ccccc2C)cc1 [ES20]
[1]
  Kd: 24.5 ± 26.9 µM
[2]; FIGS. 3K-3M, 100 nM GFP-CESA6c purified from E. coli, pH 7.5, 10 mM MgCl2, 0.05% Tween 20, 5% DMSO, triplicate
  Kd: 9.7 ± 3.3 µM

## CC1(C)S[C@@H]2[C@H](NC(=O)[C@H](N)c3ccccc3)C(=O)N2[C@H]1C(=O)O [ampicillin, reference compound]
[3]
  interaction with CESA6c: did not interact

## Cc1cccnc1NC(=S)NC(=O)c1cccc([N+](=O)[O-])c1C [ES20-9]
[4]
  sensitivity of es20r1-es20r15 mutants in growth: 14 out of 15 mutants except es20r13 show reduced sensitivity
[3]
  interaction with CESA6c: also interacts
[3]; MST
  relative binding affinity to CESA6c: slightly lower than ES20-1
[5]
  sensitivity of transgenic lines with AtCESA6 catalytic site mutations: Reduced sensitivity
[2]; FIG. 3N, GFP-CESA6c purified from E. coli, pH 7.5, 10 mM MgCl2, 0.05% Tween 20, triplicate
  Kd: 5.1 ± 4.8 µM
